Data on six compounds can be found in ChEMBL document CHEMBL1131901, “Synthesis and opiate receptor binding properties of 17-methyl-6,7-dehydro-3,14-dihydroxy-4,5alpha-epoxy-6,7:4',5'-pyrimidin omorphinans” (Bioorg Med Chem Lett, 1999).

Assay [1] has as its target T1, Delta-type opioid receptor (Homo sapiens, UniProt P41143). Description: (§1) Agonistic activity against human opioid Delta receptor transfected into Chinese hamster ovary (CHO) cells using [3H]Cl-DPDPE as radioligand. The class given is functional, cell-based.
The target in assay [2] is T1, Delta-type opioid receptor. In words: Binding affinity towards human opioid Delta receptor transfected into Chinese hamster ovary (CHO) cells using [3H]Cl-DPDPE as radioligand. The class given is cell-based.
Assay [3] addresses T2, Kappa-type opioid receptor (Homo sapiens, UniProt P41145). In words: Binding affinity towards human opioid Kappa receptor transfected into Chinese hamster ovary (CHO) cells using [3H]U-69593 as radioligand. The class given is cell-based.
Assay [4] addresses T2, Kappa-type opioid receptor. Description: (§2) Agonistic activity against human opioid Kappa receptor transfected into Chinese hamster ovary (CHO) cells using [3H]U-69593 as radioligand. The class given is functional, cell-based.
Assay [5] has as its target T3, Mu-type opioid receptor (Homo sapiens, UniProt P35372). In words: Agonistic activity against human opioid Mu receptor transfected into Chinese hamster ovary (CHO) cells using [3H]-DAMGO as radioligand. Type of assay: functional, cell-based.
Assay [6] addresses T3, Mu-type opioid receptor. In words: Binding affinity towards human opioid Mu receptor transfected into Chinese hamster ovary (CHO) cells using [3H]DAMGO as radioligand. Type of assay: cell-based.
Assay [7] concerns the target T1, Delta-type opioid receptor. Described as §1. Type of assay: functional, cell-based. This is another data set of the same source.
For assay [8], the target named is T3, Mu-type opioid receptor. Description: Agonistic activity against human opioid Mu receptor transfected into Chinese hamster ovary (CHO) cells using [3H]DAMGO as radioligand. The class given is functional, cell-based.
In assay [9] the target is T2, Kappa-type opioid receptor. Described as §2. Type of assay: functional, cell-based. This is another data set of the same source.
The target in assay [10] is T3, Mu-type opioid receptor. Described as §1. Type of assay: functional, cell-based.
In assay [11] the target is T2, Kappa-type opioid receptor. The following applies: CHO.
Description: Antagonistic activity against human opioid Kappa receptor transfected into Chinese hamster ovary (CHO) cells using [3H]U-69593 as radioligand

Each structure is given as a SMILES string.

T2 sequence (P41145 whole entry): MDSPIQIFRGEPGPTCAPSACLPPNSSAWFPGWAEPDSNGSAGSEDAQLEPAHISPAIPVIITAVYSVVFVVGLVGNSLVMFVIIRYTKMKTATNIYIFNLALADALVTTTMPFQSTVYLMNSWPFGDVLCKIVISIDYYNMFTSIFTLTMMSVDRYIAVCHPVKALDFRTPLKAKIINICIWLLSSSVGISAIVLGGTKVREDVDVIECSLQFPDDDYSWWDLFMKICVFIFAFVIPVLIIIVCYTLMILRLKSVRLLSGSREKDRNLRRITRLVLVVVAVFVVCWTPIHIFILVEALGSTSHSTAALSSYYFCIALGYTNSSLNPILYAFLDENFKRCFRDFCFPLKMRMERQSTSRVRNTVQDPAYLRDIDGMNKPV
T1 sequence (P41143 whole entry): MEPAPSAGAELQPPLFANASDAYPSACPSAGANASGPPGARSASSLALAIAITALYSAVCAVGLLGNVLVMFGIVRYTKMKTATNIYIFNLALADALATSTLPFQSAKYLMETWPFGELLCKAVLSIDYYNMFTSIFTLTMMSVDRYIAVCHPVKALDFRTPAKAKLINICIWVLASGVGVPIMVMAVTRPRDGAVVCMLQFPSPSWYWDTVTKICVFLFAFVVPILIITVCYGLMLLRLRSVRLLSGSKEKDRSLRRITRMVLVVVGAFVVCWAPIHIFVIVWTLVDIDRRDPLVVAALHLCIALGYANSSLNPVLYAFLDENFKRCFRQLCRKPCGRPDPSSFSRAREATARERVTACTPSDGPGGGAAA
T3 sequence (P35372 whole entry): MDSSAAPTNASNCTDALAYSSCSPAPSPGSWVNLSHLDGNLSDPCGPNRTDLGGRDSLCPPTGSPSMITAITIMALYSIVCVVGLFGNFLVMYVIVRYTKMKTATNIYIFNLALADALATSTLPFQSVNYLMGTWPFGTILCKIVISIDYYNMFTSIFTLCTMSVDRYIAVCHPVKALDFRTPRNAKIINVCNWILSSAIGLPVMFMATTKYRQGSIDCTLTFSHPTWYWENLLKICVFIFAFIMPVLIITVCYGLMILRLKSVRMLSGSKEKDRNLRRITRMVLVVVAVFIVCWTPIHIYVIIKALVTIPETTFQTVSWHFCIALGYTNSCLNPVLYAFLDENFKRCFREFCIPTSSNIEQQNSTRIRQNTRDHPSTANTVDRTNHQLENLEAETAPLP

As usually defined, the EC50 is the concentration at which the effect is half-maximal. In general, Ki refers to the dissociation constant of the complex between target and ligand, obtained from inhibition or displacement. In the case of `Cc1ncc2c(n1)C1Oc3c(O)ccc4c3C13CCN(C)C(C4)C3(O)C2` (centres undefined), the EC50 in assay [1] is 95.9 nM; at Mu-type opioid receptor [5], 71.9 nM; in assay [9] it was 2730 nM. Also, the values for the Ki (in assay [2]; in [3]; on Mu-type opioid receptor [6]) were 24 nM, 68.5 nM and 5.26 nM, respectively. Further, the Stimulation came out at 97% in [4], 60% in [7] and 109% on Mu-type opioid receptor [8].
`CN1CCC23c4c5ccc(O)c4OC2c2nc(N)ncc2CC3(O)C1C5` (centres undefined): the EC50 in [1] stood at 66.1 nM; on Mu-type opioid receptor [5], 75.2 nM; in assay [9] it was 1080 nM. Besides, the results for the inhibition constant Ki (in assay [2]; in assay [3]; at Mu-type opioid receptor [6]) were 19 nM, 21.1 nM and 7.32 nM, respectively. Moreover, the results for the Stimulation (in assay [4]; on Mu-type opioid receptor [10]) were 34.3% and 78.7%, respectively.
Regarding `CN1CCC23c4c5ccc(O)c4OC2c2[nH]c(=O)ncc2CC3(O)C1C5` (centres undefined), the EC50 in assay [1] is 61.5 nM; at Mu-type opioid receptor [5], 110 nM; in assay [9] it was 1020 nM. In addition, the Ki in assay [2] was determined as 19.1 nM; in assay [3], 12.3 nM; at Mu-type opioid receptor [6] it was 3.75 nM.
In the case of `CN1CCC23c4c5ccc(O)c4OC2c2nc(-c4ccccc4)ncc2CC3(O)C1C5` (centres undefined), the EC50 in assay [1] came to 24 nM; on Mu-type opioid receptor [5], 58.4 nM; in [9] it was 1420 nM. Besides, the Ki turned out to be 6.48 nM in assay [2], 45 nM in assay [3] and 7.34 nM on Mu-type opioid receptor [6]. The Stimulation is 49.5% in assay [4], 92.5% in [7] and 89.4% on Mu-type opioid receptor [8].
Consider `CN1CCC23c4c5ccc(O)c4OC2c2nc(O)ncc2CC3(O)C1C5` (centres undefined), for which the Stimulation in assay [4] was determined as 40.7%; in assay [7], 97%; on Mu-type opioid receptor [8], 87.7%.
As to `CN1CCC23c4c5ccc(O)c4OC2c2n[nH]cc2CC3(O)C1C5` (centres undefined), the results for the EC50 (in assay [1]; at Mu-type opioid receptor [5]) were 25 nM and 19.3 nM, respectively. The Ki in [2] was 12.2 nM; in assay [3], 11.9 nM; on Mu-type opioid receptor [6], 1.72 nM. Further, the Stimulation in [4] amounted to 18.9%; in assay [7] it was 75.2%; at Mu-type opioid receptor [8], 80.3%. In assay [11], the Ke is 59.3.
